Test results taken from US7371755B1 (Biota Scientific Management Pty Ltd., priority 1999, dated 2008).
≈ marks a conversion by molar mass, not a printed value. Where two headings read alike, the source gives them in different places.

Columns and labels:
[1] = Cytotoxicity in uninfected treated cultures (HRV type 2 assay); details: human
Protocol: (§1) The ability of compounds to suppress virus replication and thereby protect cells from HRV-induced CPE was measured using human embryo lung (MRC-5) and human epidermoid carcinoma of the mouth (KB) cells infected with HRV type 1A and HRV type 2, respectively. Cells grown in 96 well tissue culture plates using conventional mammalian tissue culture medium (such as minimum essential medium) supplemented with fetal calf serum were used in an assay essentially similar to that described by Sidwell and Huffman (Applied Microbiology, 22, 797-801 (1971)). Test compounds were dissolved in 100% anhydrous dimethyl sulfoxide and serially diluted in tissue culture medium. The antiviral potency of the test compounds was assessed by exposing replicate tissue culture wells to a selected dilution series of between 6 and 7 compound concentrations in the presence of sufficient test virus to invoke significant CPE over the course of the assay. Control cells were also exposed to identical concentrations of compounds in the absence of virus or were infected with virus under the same conditions but in the absence of compounds. Compounds of established anti-HRV efficacy (enviroxime, ribavirin and pirodavir) were assayed by identical procedures in parallel to the test compounds. Tissue culture media were identically supplemented to maintain cell viability and support viral growth while suppressing bacterial growth over the period of the assay (supplements: 2% fetal calf serum, 0.01% sodium bicarbonate, […] gentamicin, […] magnesium chloride, […] of zinc chloride). […] At this time all infected cultures were examined by eye using a light microscope and CPE scored on a scale of 0 (no CPE) to 4 (maximum CPE). Uninfected treated cultures were similarly scored for cytotoxic effects (eg. cell enlargement, granularity, rounding, detachment). […] As an alternative to a CC50 value, cytoxicity in some cases was expressed as the Minimum Toxic Concentration (MTC).
(§2) Vital dye staining to measure cell viability was also used to quantify CPE and cytotoxic effects. The vital dye technique was based on either neutral red uptake (Modification of the method of McManus, Appl. Environment. Microbiol., 31, 35-38, 1976) or XXT metabolism. After the assay had been scored by eye with the aid of a microscope, 100 1 of neutral red (NR) solution (0.34% NR in phosphate buffered saline (PBS)) was added to each well and mixed gently. The assays were returned to the 37° C. incubator for 2 hours to facilitate uptake of the NR by viable cells. The medium/NR mixture was then aspirated from the surface of the cells, which were washed twice with PBS. 0.25 ml of absolute ethanol containing Sorensen's citrate buffer I, was added with gentle mixing and the assays incubated at room temperature in the dark for 30 minutes to dissolve the NR. NR staining of viable cells was then quantified spectrophotometrically by measuring the colour density of the NR solution using a BioTek EL-309 microplate reader at dual wavelengths of 540 and 405 nm. The differences in the two readings were automatically determined to eliminate background errors. EC50 and CC50 values were determined by regression analysis matching compound concentration to NR staining. The XTT method involved use of a solution of XTT (1 mg/ml in culture media) which was added to each well and the plates incubated at 37° C. for 4 hours. XTT metabolism was measured spectrophotometrically using a similar method to that described above except that the dual wavelengths were 450 nm and 650 nm. EC50 and CC50 values were determined by regression analysis using a similar method to that described above.
(§3) Selectivity indices (SI) are the CC50 or MTC divided by the EC50.

[2] = Cytotoxicity in uninfected treated cultures (HRV type 1A assay); format: cell-based, human; details: human
Protocol: (§5) The ability of compounds to suppress virus replication and thereby protect cells from HRV-induced CPE was measured using human embryo lung (MRC-5) and human epidermoid carcinoma of the mouth (KB) cells infected with HRV type 1A and HRV type 2, respectively. […] Test compounds were dissolved in 100% anhydrous dimethyl sulfoxide and serially diluted in tissue culture medium. The antiviral potency of the test compounds was assessed by exposing replicate tissue culture wells to a selected dilution series of between 6 and 7 compound concentrations in the presence of sufficient test virus to invoke significant CPE over the course of the assay. Control cells were also exposed to identical concentrations of compounds in the absence of virus or were infected with virus under the same conditions but in the absence of compounds. Compounds of established anti-HRV efficacy (enviroxime, ribavirin and pirodavir) were assayed by identical procedures in parallel to the test compounds. Tissue culture media were identically supplemented to maintain cell viability and support viral growth while suppressing bacterial growth over the period of the assay (supplements: 2% fetal calf serum, 0.01% sodium bicarbonate, 50 g/ml gentamicin, 5 M magnesium chloride, 10 mM of zinc chloride). […] At this time all infected cultures were examined by eye using a light microscope and CPE scored on a scale of 0 (no CPE) to 4 (maximum CPE). Uninfected treated cultures were similarly scored for cytotoxic effects (eg. cell enlargement, granularity, rounding, detachment). […] As an alternative to a CC50 value, cytoxicity in some cases was expressed as the Minimum Toxic Concentration (MTC).
(§6) Vital dye staining to measure cell viability was also used to quantify CPE and cytotoxic effects. […] After the assay had been scored by eye with the aid of a microscope, 100 1 of neutral red (NR) solution (0.34% NR in phosphate buffered saline (PBS)) was added to each well and mixed gently. The assays were returned to the 37° C. incubator for 2 hours to facilitate uptake of the NR by viable cells. The medium/NR mixture was then aspirated from the surface of the cells, which were washed twice with PBS. 0.25 ml of absolute ethanol containing Sorensen's citrate buffer I, was added with gentle mixing and the assays incubated at room temperature in the dark for 30 minutes to dissolve the NR. NR staining of viable cells was then quantified spectrophotometrically by measuring the colour density of the NR solution using a BioTek EL-309 microplate reader at dual wavelengths of 540 and 405 nm. The differences in the two readings were automatically determined to eliminate background errors. EC50 and CC50 values were determined by regression analysis matching compound concentration to NR staining. The XTT method involved use of a solution of XTT (1 mg/ml in culture media) which was added to each well and the plates incubated at 37° C. for 4 hours. XTT metabolism was measured spectrophotometrically using a similar method to that described above except that the dual wavelengths were 450 nm and 650 nm. EC50 and CC50 values were determined by regression analysis using a similar method to that described above.

[3] = test system: HRV type 1A; test: Inhibition of viral cytopathic effect (CPE), HRV type 1A in MRC-5 cells; format: cell-based, human rhinovirus; details: for EC50: Enterovirus
Protocol: as §5, §6

[4] = test system: HRV type 2; test: Inhibition of viral cytopathic effect (CPE), HRV type 2 in KB cells; format: cell-based, human rhinovirus; details: for EC50: Enterovirus, read-out: Activity on Rhinovirus Type 2 EC50
Protocol: as §5, §6

[5] = test system: human epidermoid carcinoma of the mouth (KB) cells; test: Cytotoxicity in uninfected treated cultures (HRV type 2 assay)
Protocol: as §1, §2, §3

[6] = test system: human embryo lung (MRC-5) cells; test: Cytotoxicity in uninfected treated cultures (HRV type 1A assay); format: cell-based
Protocol: as §5, §6

[7] = test system: Coxsackie A21; test: Activity against Coxsackie A21 in mammalian cell culture assay; format: cell-based
Protocol: (§4) Activity against Enteroviruses in Mammalian Cell Culture Assays Compounds 50 and 56 of the Invention were Tested Against Other Picornaviruses Using Similar cell based assays to those described in example 30 above and the results are shown in Table 6 below: […]

[8] = test system: Echo 21; test: Activity against Echo 21 in mammalian cell culture assay; format: cell-based
Protocol: as §4

[9] = test system: mammalian cell culture; format: cell-based
Protocol: as §4

[10] = test system: Enterovirus 70; test: Activity against Enterovirus 70 in mammalian cell culture assay; format: cell-based
Protocol: as §4

[11] = test system: mammalian cell culture; test: in vitro; format: cell-based
Protocol: as §4

[12] = in vitro; format: cell-based
Protocol: as §4

[13] = MRC5, HRV type 1A, MRC-5 cells, concentration yielding 50% antiviral efficacy, read-out: Activity on Rhinovirus Type 1A EC50
[14] = HRV type 2, KB cells, concentration yielding 50% antiviral efficacy
[15] = HRV type 1A, MRC-5 cells, concentration yielding 50% antiviral efficacy
[16] = MRC5, read-out: Activity on Rhinovirus Type 1A EC50
[17] = Enterovirus D; read-out: Activity on Enterovirus 70 EC50

Structure (SMILES) | CC50 [2] | Activity on Rhinovirus Type 2 CC50 [5] | Activity on Rhinovirus Type 1A CC50 [6] | Activity on Rhinovirus Type 1A EC50 [3, 15] | Activity on Rhinovirus Type 2 EC50 [4, 14] | further results
COCc1cc(CCCOc2c(C)cc(-c3ccccc3)cc2C)on1 [Compound 6, 3-(methoxymethyl)-5-[3-[2,6-dimethyl-4-phenylphenoxy]-propyl]-isoxazole] | > 50 µg/mL | – | – | – | – | CC50 ([1]; KB cells, uninfected): > 5 µg/mL; EC50 [3, 13]: 0.16 µg/mL (≈ 0.455 µM); EC50 [4, 14]: < 0.005 µg/mL
Cc1cc(-c2ccccc2)cc(C)c1OCCCc1cc(COCCOCCOCCO)no1 [Compound 8] | – | 5 µg/mL | 22.7 µg/mL | 0.59 µg/mL | 0.001 µg/mL | –
Cc1cc(-c2ccccc2)cc(C)c1OCCCc1cc(COCCOCCOCCOCCOCCOCCO)no1 [Compound 10] | – | 5 µg/mL | 19 µg/mL | >50 µg/mL | 0.1 µg/mL | –
CC(=O)NCCOCCOCc1cc(CCCOc2c(C)cc(-c3ccccc3)cc2C)on1 [Compound 19] | – | – | – | – | – | CC50 [1]: 2 µg/mL (≈ 4.29 µM); CC50 ([2]; MRC-5 cells, no virus, CC50 or, in some cases, MTC, read-out: Activity on Rhinovirus Type 1A CC50): 5.79 µg/mL (≈ 12.4 µM); EC50 [3, 16]: 0.87 µg/mL (≈ 1.86 µM); EC50 ([4]; KB): < 0.005 µg/mL
Cc1cc(-c2noc(C(F)(F)F)n2)cc(C)c1OCCCc1cc(COCCOCCOCCO)no1 [Compound 24] | – | > 1 µg/mL | 5.28 µg/mL | 0.21 µg/mL | 0.04 µg/mL | –
Cc1cc(-c2ccccc2)cc(C)c1OCCCc1cc(COCCOCCOCCOCc2cc(CCCOc3c(C)cc(-c4ccccc4)cc3C)on2)no1 [Compound 32, 1,8-bis-[5-[3-[2,6-dimethyl-4-phenylphenoxy]-propyl]-isoxazolyl-3-methyloxy]-3,6-dioxaoctane] | – | > 5 µg/mL | > 50 µg/mL | 0.32 µg/mL | 0.1 µg/mL | –
Cc1cc(-c2ccccc2)cc(C)c1OCCCc1cc(COCCOCCOCCOCCOCCOCCOCc2cc(CCCOc3c(C)cc(-c4ccccc4)cc3C)on2)no1 [Compound 34] | – | > 0.5 µg/mL | 10.9 µg/mL | >50 µg/mL | 0.09 µg/mL | –
Cc1cc(-c2ccccc2)cc(C)c1OCCCc1cc(COCCOCCOCCOCCNC(=O)Nc2ccc(Cc3ccc(NC(=O)NCCOCCOCCOCCOCc4cc(CCCOc5c(C)cc(-c6ccccc6)cc5C)on4)cc3)cc2)no1 [Compound 48] | – | > 5 µg/mL | 30.6 µg/mL | 3.85 µg/mL | 0.6 µg/mL | –
Cc1cc(-c2noc(C(F)(F)F)n2)cc(C)c1OCCCc1cc(COCCOCCOCc2cc(CCCOc3c(C)cc(-c4noc(C(F)(F)F)n4)cc3C)on2)no1 [Compound 50, 1,5-bis-[5-[3-[2,6-dimethyl-4-(5-trifluoromethyl-1,2,4-oxadiazolyl)phenoxy]-propyl]-isoxazolyl-3-methyloxy]-3-oxapentane] | – | 2 µg/mL | 10 µg/mL | 0.06 µg/mL | 0.02 µg/mL | Activity on Coxsackie A21 EC50 [7]: 0.35 µg/mL; Activity on Echo 21 EC50 [8]: 0.0006 µg/mL; Activity on Coxsackie A21 CC50 [9]: > 50 µg/mL; Activity on Enterovirus 70 CC50 [9]: > 50 µg/mL; Activity on Enterovirus 70 EC50 ([10]; Enterovirus 70): >50 µg/mL; Activity on Echo 21 CC50 [11]: 46.3 µg/mL
Cc1cc(-c2noc(C(F)(F)F)n2)cc(C)c1OCCCc1cc(COCCOCCOCCOCCOCc2ccc(COCCOCCOCCOCCOCc3cc(CCCOc4c(C)cc(-c5noc(C(F)(F)F)n5)cc4C)on3)cc2)no1 [Compound 56] | – | 2 µg/mL | 10 µg/mL | 1.8 µg/mL | 0.09 µg/mL | Activity on Coxsackie A21 EC50 [7]: 0.36 µg/mL; Activity on Echo 21 EC50 [8]: 0.0026 µg/mL; Activity on Coxsackie A21 CC50 [9]: 11.1 µg/mL; Activity on Enterovirus 70 CC50 [9]: > 50 µg/mL; Activity on Enterovirus 70 EC50 ([10]; Enterovirus 70): 2.88 µg/mL; Activity on Echo 21 CC50 [11]: 7.93 µg/mL
CC(C)S(=O)(=O)n1c(N)nc2ccc(/C(=N/O)c3ccccc3)cc21 [Enviroxime] | 0.49 µg/mL (≈ 1.37 µM) | – | – | – | – | EC50 [7]: 0.39 µg/mL (≈ 1.09 µM); EC50 [3, 13]: 0.006 µg/mL (≈ 0.0167 µM); EC50 [8]: 0.03 µg/mL (≈ 0.0837 µM); EC50 [10, 17]: 0.21 µg/mL (≈ 0.586 µM); CC50 [12]: 0.45 µg/mL (≈ 1.26 µM)
CCOC(=O)c1ccc(OCCC2CCN(c3ccc(C)nn3)CC2)cc1 [Pirodavir, reference compound] | > 10 µg/mL | – | – | – | – | EC50 [3, 13]: 0.02 µg/mL (≈ 0.0541 µM); EC50 [4, 14]: 0.003 µg/mL (≈ 0.00812 µM)
Cc1cc(CCCOc2c(C)cc(-c3noc(C(F)(F)F)n3)cc2C)on1 [Pleconaril, reference compound] | 10 µg/mL (≈ 26.2 µM) | – | – | – | – | EC50 [7]: 0.0033 µg/mL (≈ 0.00865 µM); CC50 ([1]; KB cells, uninfected): 0.5 µg/mL (≈ 1.31 µM); EC50 [3, 16]: 0.02 µg/mL (≈ 0.0524 µM); EC50 ([4]; KB): 0.05 µg/mL (≈ 0.131 µM); EC50 [8]: > 0.00016 µg/mL; EC50 ([10]; Enterovirus D, read-out: Activity on Enterovirus 70 EC50): 0.28 µg/mL (≈ 0.734 µM)
NC(=O)c1ncn([C@@H]2O[C@H](CO)[C@@H](O)[C@H]2O)n1 [Ribavirin] | 98.3 µg/mL (≈ 403 µM) | – | – | – | – | EC50 [7]: > 100 µg/mL; EC50 [8]: 3 µg/mL (≈ 12.3 µM); EC50 [10, 17]: > 100 µg/mL
